Reference: PubChem BioAssay (NCI)
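96-well plates; 48 h exposure; 5 concentrations. Endpoints by linear interpolation between flanking doses. Not reached: highest tested concentration assigned. TGI: concentration producing complete growth inhibition.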

How the values were obtained:
Test in all cases: growth of human tumour cells (NCI), 48 h
[1] = test system: OVCAR-5 ovarian
[2] = test system: SR leukemia
[3] = test system: MOLT-4 leukemia
[4] = test system: HCT-15 colon
[5] = test system: COLO 205 colon
[6] = test system: OVCAR-8 ovarian
[7] = test system: K-562 leukemia
[8] = test system: SF-268 CNS
[9] = test system: A549 NSCLC
[10] = test system: SK-MEL-2 melanoma
[11] = test system: NCI-H226 lung
[12] = test system: RPMI-8226 leukemia
[13] = test system: U251 CNS
[14] = test system: MDA-MB-231 breast

SMILES	TGI [1] [µM]	TGI [2] [µM]	TGI [3] [µM]	TGI [4] [µM]	TGI [5] [µM]	TGI [6] [µM]	TGI [7] [µM]	TGI [8] [µM]	TGI [9] [µM]	TGI [10] [µM]	TGI [11] [µM]	TGI [12] [µM]	TGI [13] [µM]	TGI [14] [µM]
COC(=O)C(C(=O)C(=O)Nc1ccc(C)cc1C)c1nc2ccc([N+](=O)[O-])cc2[nH]c1=O (configuration not stated)	> 100	> 100	> 100	> 100	> 100	> 100	> 100	> 100	> 100	> 100	> 100	> 100	> 100	
COc1ccc2c(c1)Cc1c-2[nH]c2cc3c(cc2c1=O)OCO3			41.9	> 100	25.5	> 100	> 100	> 100	> 100	21.8	94.3	35.8	23.5	
C/C(CC(=O)Nc1ccc(NC(=O)/C(C)=N/NS(=O)(=O)c2ccc(C)cc2)cc1)=N\NS(=O)(=O)c1ccc(C)cc1	> 100		> 100	> 100	> 100	> 100	> 100	> 100	> 100	> 100	> 100	> 100	> 100	
Cc1noc(C)c1N=Nc1ccc2nonc2c1N	> 100	> 100	> 100	> 100	> 100	> 100		> 100	> 100	> 100		> 100		> 100
Cc1ccc(C(=O)NC(C)C)cc1N=NN(C)C				> 100		> 100		> 100	> 100	> 100			> 100	
O=S(=O)(Nc1nc(-c2cc(O)c(O)c(O)c2)cs1)c1ccc(Cl)cc1Cl	33.4		52.7	33	50.2	14.9	48	46.2	> 100	> 100	> 100	40.8	37.3	44.9
C[n+]1c(-c2ccc(/C=N/Nc3n[nH]c(=S)n3N/N=C/c3ccc(-c4cn5ccccc5[n+]4C)cc3)cc2)cn2ccccc21	> 100	> 100	> 100	> 100	> 100	> 100	> 100	> 100	> 100			> 100	> 100	> 100
C=CC[C@@]1(C#N)C[C@H](C[C@]2(C#N)C[C@H](CCl)OC(C)(C)O2)OC(C)(C)O1	> 100	> 100	> 100	> 100	> 100	> 100	> 100	> 100	> 100	> 100	> 100	> 100	> 100	
Cc1ccc(C(=O)/C=C/N2CCN(c3cccc(C(F)(F)F)c3)CC2)cc1	39.1	40.3	48.2	29.5	72	38.9	49.1	36.8	53.6	34.8	38.9	> 100	31.4	33.4
N=C(N)Cn1cnc2ccccc21	> 100		> 100	> 100	> 100	> 100	> 100	> 100	> 100	> 100	> 100	> 100	> 100	
COC(=O)NN=C1C(C)(C)C(=NNC(=O)OC)C1(C)C	> 100		> 100	> 100	> 56	> 55.9	> 100	> 100	> 100	> 100	> 100		> 100	
CCOC(=O)CC(=Nc1cc(C)on1)N(CC)CC	> 100	> 100	> 100	> 100	> 100	> 100	> 100	> 100	> 100	> 100	> 100	> 100	> 100	
OC1NC2CC3NC(O)C(O)NC3CC2NC1O (configuration not stated)	> 100	> 100	> 100	> 100	> 100	> 100	> 100	> 100	> 100	> 100	> 100	> 100	> 100	> 100
[N-]=[N+]=NC(c1cn(C2CC(O)C(CO)O2)c(=O)[nH]c1=O)C(I)I (configuration not stated)	> 100	> 100	> 100		> 100	> 100	> 100	> 100	> 100	> 100	> 100	> 100	> 100	
